In PubChem BioAssay (NCI):
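Following 48 hours of exposure in 96-well plates, responses at five concentrations were used to interpolate endpoints linearly. GI50 marks 50% less growth. TGI is the concentration that stops growth completely.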

Tests used:
Experiment in all cases: DTP human tumour cell line panel, 48 h
MCF7 breast = tested on: MCF7 breast
SK-OV-3 ovarian = tested on: SK-OV-3 ovarian
MDA-MB-231 breast = tested on: MDA-MB-231 breast
COLO 205 colon = tested on: COLO 205 colon
HOP-62 NSCLC = tested on: HOP-62 NSCLC
SW-620 colon = tested on: SW-620 colon
PC-3 prostate = tested on: PC-3 prostate
A549 NSCLC = tested on: A549 NSCLC
A498 renal = tested on: A498 renal
SN12C renal = tested on: SN12C renal

Row | SMILES | GI50 (MCF7 breast) [µM] | TGI (MCF7 breast) [µM] | GI50 (SK-OV-3 ovarian) [µM] | TGI (SK-OV-3 ovarian) [µM] | GI50 (MDA-MB-231 breast) [µM] | TGI (MDA-MB-231 breast) [µM] | GI50 (COLO 205 colon) [µM] | TGI (COLO 205 colon) [µM] | GI50 (HOP-62 NSCLC) [µM] | TGI (HOP-62 NSCLC) [µM] | GI50 (SW-620 colon) [µM] | TGI (SW-620 colon) [µM] | GI50 (PC-3 prostate) [µM] | TGI (PC-3 prostate) [µM] | GI50 (A549 NSCLC) [µM] | TGI (A549 NSCLC) [µM] | TGI (A498 renal) [µM] | TGI (SN12C renal) [µM] | GI50 (A498 renal) [µM] | GI50 (SN12C renal) [µM]
1 | CC(C)C[C@H](NC(=O)[C@@H](O)[C@H](N)Cc1ccc([N+](=O)[O-])cc1)C(=O)O | > 25 | > 25 | > 25 | > 25 | > 25 | > 25 | > 25 | > 25 | > 25 | > 25 | > 25 | > 25 | > 25 | > 25 | > 25 | > 25 |  |  |  | 
2 | COc1cc(C)c(O)c(C(=O)O)c1 |  |  |  | > 100 |  |  |  | > 100 |  | > 100 |  | > 100 |  |  |  | > 100 | > 100 | > 100 |  | 
3 | Cc1ccc(Sc2ccc(C)cc2[N+](=O)[O-])c([N+](=O)[O-])c1 |  |  |  | > 100 |  |  |  | > 100 |  | > 100 |  | > 100 |  |  |  | > 100 | > 100 | > 100 |  | 
4 | C=C1CCC2[C@@H](CCC3[C@]2(C)CCC[C@]3(C)C(=O)OC)C1CCO (stereo partly drawn) |  |  |  | 45.3 |  |  |  | 27.9 |  | 41.7 |  | 26.9 |  |  |  | 32.5 | 30.6 | 27.5 |  | 
5 | COc1ccc(-c2nn(-c3cccc(Cl)c3)cc2-c2cc(-c3ccccc3)nc(N)n2)cc1 |  |  | 13.5 | 29.2 |  |  | 2.09 | 3.81 | 2.5 | 6.41 |  |  | 1.6 | 6.56 | 2.7 | 13.7 | 11.9 | 5.02 | 2.21 | 1.9
6 | CC(=O)NC1CC2Oc3ccc(C)cc3C(C)(O2)C1O (stereo not drawn) |  |  |  | > 100 |  |  |  | > 100 |  | > 100 |  | > 100 |  |  |  | > 100 |  | > 100 |  | 
7 | CCN(CC)CC(C(=O)Nc1c(C)cccc1C)/C(C)=N\NC(=O)c1ccncc1 (stereo not drawn) |  |  |  | > 100 |  |  |  | > 100 |  | > 100 |  |  |  |  |  | > 100 | > 100 | > 100 |  | 
8 | COc1cc(/C=C/C(=O)c2sc(NNC(C)=O)nc2C)ccc1O |  |  |  | > 100 |  |  |  | > 100 |  | > 100 |  | > 100 |  |  |  | > 100 | > 100 | > 100 |  | 
9 | C=CCNC(=O)NCCCC(NC(C)=O)C(=O)NCc1ccccc1 (stereo not drawn) |  |  |  | > 100 |  |  |  | > 100 |  | > 100 |  | > 100 |  |  |  | > 100 | > 100 | > 100 |  | 
10 | FC(F)(F)c1ccc(-c2cnc(Cl)nc2NCc2cc(C(F)(F)F)cc(C(F)(F)F)c2)cc1 | 2.65 | > 100 | 3.4 | > 100 | 2.19 | 6.4 | 1.88 | 3.43 | 3.86 | > 100 | 3.14 | > 100 |  |  | 2.81 | > 100 | 6.87 | > 100 | 1.97 | 2.81
11 | O=C(CCc1cc(-c2ccccc2)nc(=S)[nH]1)Nc1ccccc1[N+](=O)[O-] |  |  |  | > 100 |  |  |  | > 100 |  | > 100 |  | > 100 |  |  |  | > 100 | > 100 | > 100 |  | 
12 | O=C1CCC2(c3ccccc3)Nc3ncccc3N12 (stereo not drawn) |  |  |  | > 100 |  |  |  | > 100 |  | > 100 |  | > 100 |  |  |  | > 100 | > 100 | > 100 |  | 
13 | CCOC(=O)c1nc(-c2ccccc2)oc1OCC |  |  |  | > 100 |  |  |  | > 100 |  | > 100 |  | > 100 |  |  |  | > 100 |  | > 100 |  | 
14 | CS/C(=N\c1nccs1)NC(=O)c1cccc(Cl)c1 |  |  |  | > 100 |  |  |  | > 100 |  | > 100 |  | > 100 |  |  |  | > 100 | > 100 | > 100 |  | 
15 | O=C(Nc1nc(=S)c2c(ncn2CCO)[nH]1)c1ccccc1 |  |  |  | > 100 |  |  |  | > 100 |  | > 100 |  | > 100 |  |  |  | > 100 | > 100 | > 100 |  | 
16 | O=C1c2ccccc2CC1C1(O)C(=O)Nc2ccccc21 (stereo not drawn) |  |  |  | > 100 |  |  |  | > 100 |  | > 100 |  | > 100 |  |  |  | > 100 | > 100 | > 100 |  | 
17 | COC(=O)c1cc(-c2cccn2C)c2c(c1C(=O)OC)c1ccccc1n2C |  |  |  | > 100 |  |  |  | > 100 |  |  |  | > 100 |  |  |  | > 100 |  | > 100 |  | 
18 | CCCC(Sc1ccccc1)P(=O)(c1ccccc1)c1ccccc1 (stereo not drawn) |  |  |  | 50.7 |  |  |  | > 100 |  | > 100 |  | > 100 |  |  |  | > 100 | > 100 | > 100 |  | 
